# Assays:
# [1] = Continuous glucose monitoring (Abbot Libre CGM) with carbohydrate challenge; format: in vivo, human; settings: 10 g given 45 minutes before 50 g carbohydrate ingestion; compared with unsupplemented ingestion
# Source text: FIG. 11 is a graphical illustration of continuous monitoring of body glucose levels. FIG. 11 depicts continuous glucose monitoring levels with carbohydrate challenge documented by Abbot Libre Continuous Glucose Monitoring (CGM) device. In this illustrative embodiment, glucose levels from a 50 g carbohydrate ingestion are depicted unaided by free D-BetaHydroxyButyric Acid on the left and repeated the following day with two 50 g carbohydrate ingestions accompanied by 10 g free D-BetaHydroxyButyric Acid administered 45 minutes before the carbohydrate insult. […] As free D-BetaHydroxyButyric Acid can lower glucose while rapidly increasing ketone levels, it is believed that obtaining high ketones while lowering glucose will yield additional stroke recovery benefits for high glucose sensitive individuals suffering from stroke.
# [2] = Continuous Ketone Meter (CKM) monitoring of body ketone levels and deep sleep; format: in vivo, human; settings: 5 grams consumed 45 minutes prior to bedtime
# Source text: FIG. 12 is a graphical illustration of continuous monitoring of body ketone levels resulting in improved deep sleep time due to enhanced D-BHB levels according to the claimed invention. It is noteworthy that consumption of even small amounts of free D-BetaHydroxy Butyric Acid can give rise to therapeutic ketosis levels as measured by Continuous Ketone Meter (CKM). […] While free D-BetaHydroxyButyric Acid is not a sedative, even small amounts can greatly improve deep sleep quantity and quality. It is an intended and foreseeable embodiment application to increase deep sleep with free D-BetaHydroxyButyric Acid with the aim of improving stroke recovery and enhanced brain resiliency.
# [3] = Stated properties of free D-BHB (Table 1); parameters: species or system human
# [4] = Blood ketone level by Abbott blood ketone meter / test strip after oral free D-BHB; format: in vivo, human
# Source text: FIG. 9 is a graphical illustration of D-BHB exogenous ketone blood levels. The above Abbot blood ketone meter evidenced by Abbott blood test strip depicts the rapid rise in blood ketone levels from 0.1 mmol/L (absence of ketosis) to 2.7 mmol/L (ketosis) after oral bolus administration of 15 grams of bioidentical free D-BetaHydroxyButyric Acid. The ketone levels depicted are attained in the absence of a salt as well as without ester bonds. It is the free acid D-BHB exogenously administered which is bio-identical to the endogenous D-BHB free acid generated by the human body. The bioidentical ketone body D-BHB is first and foremost an energy source, which is directly and preferentially metabolized by the brain. D-BHB is also active as a signaling mechanism and neuro-inflammation reduction agent, resulting in broad and beneficial brain bioenergy related benefits.
# FIG. 10 is a graphical illustration of D-BHB exogenous ketone blood levels. FIG. 10 details rapid ketosis within 45 minutes confirmed by Abbott blood test strip after 10 g D-BHB with palatability agent administered by oral drink. Blood ketone levels document rise from 0.2 mmol/L to 1.8 mmol/L and 0.6 mmol/L to 1.9 mmol/L in a variety of test subjects. FIG. 10 reinforces the fact that supplementation by utilizing free D only BetaHydroxyButyric Acid without ketone salt or ketone ester is a reliable, reproducible method and system for rapid ketone level increase for stroke recovery and maintenance. While amounts of free D only BetaHydroxyButyric Acid taken for stroke effects may vary, it is an anticipated preferred embodiment that levels between 5 and 30 grams of D only BetaHydroxyButyric Acid are taken as needed for optimum recovery. Alternate embodiments may include lower or higher amounts, however, experimental evidence has confirmed optimal administration in this range for a wide variety of other applications.
# [5] = compared with ketone salts, literature table; cited from earlier work
increase in ketone level (CKM) [2] [mmol/L],Induces Ketoacidosis [3],Metabolism [3],time to ketosis ([4]; 10 g D-BHB with palatability agent by oral drink) [min],"blood ketone level after administration ([4]; 10 g with palatability agent by oral drink, test subject rising from 0.2 mmol/L) [mmol/L]","blood ketone level after administration ([4]; 10 g with palatability agent by oral drink, test subject rising from 0.6 mmol/L) [mmol/L]","blood ketone level after administration ([4]; oral bolus of 15 grams, rise from 0.1 mmol/L (absence of ketosis)) [mmol/L]",Compound,glucose spike after carbohydrate ingestion [1],deep sleep quantity [2],ketone level response [5]
1.5,Induces Ketoacidosis: No,"Metabolism: Rapid, minutes",≤ 45,1.8,1.9,2.7,"C[C@@H](O)CC(=O)O [free D-BetaHydroxyButyric Acid, D-β-HydroxyButyric Acid]",rapid glucose spike depicted in the unsupplemented ingestion is not found,enhance the quantity of deep sleep obtained,
,,,,,,,"C[C@@H](O)CCOC(=O)C[C@@H](C)O [ketone ester, (R)-3-hydroxybutyl (R)-3-hydroxybutyrate]",,,higher ketone level response

# From patent US20240269095A1, “Rapid Onset Therapeutic Ketosis Enabled by D-BetaHydroxyButyric Acid Systems, Compounds and Methods for Stroke medication co-administration” (American Ketone Therapeutics LLC, priority 2022, published 2024)
